The text below walks through data of patent publication US12029747B2, “Use of baicalin in preparation of drug for treating tumor irresponsive to immune checkpoint inhibitors (ICIs)/undergoing hyperprogression” (BEIJING FRIENDSHIP HOSPITAL, CAPITAL MEDICAL UNIVERSITY, priority 2022, dated 2024).

Each structure is given as a SMILES string. Entries after “also recorded” stand apart in the source; their conditions may differ.

For one data set, the system named is Foxp3^+Treg cells. Description: Detection of Foxp3+Treg cells in a tumor tissue by FCM (NR-FMT LLC-bearing mice). It is filed as in vivo, C57BL/6J mice. The conditions noted are these: flow cytometry of tumor tissue. (A flow cytometer gives signals particle by particle.)
A short description of data set [1]: Adverse reactions in treated tumor-bearing mice. In kind it is in vivo. The following applies: tumor-bearing mice irresponsive to ICIs. Here is the method:
(§1) During administration, a body weight of mice was monitored every 3 days, and a tumor volume was measured.

For data set [2], the system named is Lewis lung carcinoma (LLC). Description: Therapeutic effect in PD-1 mAb-irresponsive (NR-FMT) LLC-bearing mice: tumor volume and weight. It is filed as in vivo, C57BL/6J mice. The following applies: compared with NR-Control group, HQG intragastric daily, PD-1 mAb i.p. once every 3 days. The method, then:
Pseudo-germ-free mouse modeling: Mice were treated with broad-spectrum antibiotics to construct pseudo-germ-free mouse models. 36 female C57BL/6J mice at 5 weeks (experimental animal license No.: SCXK (Beijing) 2019-0009) were purchased from Beijing Vital River Laboratory Animal Technology Co., Ltd. The mice were raised under the following conditions: cleanliness: SPF level; room temperature: 20° C. to 22° C.; humidity: 60±5%; 12 h light/12 h dark alternating cycle; and free eating and drinking. All animal protocols in this experiment were approved by the Beijing MaideiKangna Animal Ethics Committee, and animal experimental operations were conducted under the guidance of the Laboratory Animal Protection Association.
After the mice were raised adaptively for one week, the mice were intragastrically administered daily with 100 μL of ABT for consecutive 3 days. […]
Subcutaneous inoculation of LLC cells: An LLC cell suspension with a concentration of about 1×10^7 cells/mL was inoculated at a right axilla of a fecal bacteria-transplanted mouse with an inoculum size of 0.2 mL/mouse. The longest and shortest diameters of a tumor were measured by a vernier caliper, and a volume of the tumor=½ longest diameter×shortest diameter^2. […]
as §1

Turning to `O=C(O)[C@H]1O[C@@H](Oc2cc3oc(-c4ccccc4)cc(=O)c3c(O)c2O)[C@H](O)[C@@H](O)[C@@H]1O` [HQG, baicalin], the “number of Foxp3+Treg cells in a tumor” value in the data set with Foxp3^+Treg cells is recorded as “not reduced”. For the same compound, in data set [1], the adverse reactions result was “no significant adverse reactions”. In data set [2], the tumor volume entry is recorded as “no significant difference; also recorded: not reduced” and the tumor weight result is given as “no significant difference; also recorded: not reduced”.
